Measured values taken from US6913760B2, “Drug delivery composition” (New England Medical Hospitals, Inc., priority 2001, dated 2005).
Several values for one entry are separate records, joined by “and”; a condition that tells them apart may be missing. Equal entries are not always repeated. Marks after values point to notes of the source that are not given here.

What was measured:
rats [1] = assay: Anesthesia after intrathecal polymeric implants, all sites tested (Example 2); type: in vivo; conditions: intrathecal rods
[2] = tested on: rats with sciatic nerve ligation; assay: Paw withdrawal threshold after sciatic nerve ligation, rods placed parallel to the nerve; type: in vivo, Sprague-Dawley rats
rats [3] = assay: Tail flick test after intrathecal implantation of PLGA rods; type: in vivo; conditions: for % MPE, tail flick test, Average: average of 6 rats
[4] = rat
[5] = In vitro release of BP or HM from PLGA 50:50 rods; type: physicochemical; conditions: BP rods of first batch
[6] = Drug release studies of PLGA 85:15 rods (Example 2); type: physicochemical
rats [7] = assay: Paw withdrawal test after intrathecal implantation of PLGA rods; type: in vivo; conditions: for % MPE, paw withdrawal test, Average: average of 6 rats
[8] = trapezoidal method, individual rats, listed as BP
[9] = trapezoidal method, mean of 6 rats

CCCCN1CCCCC1C(=O)Nc1c(C)cccc1C (stereo not shown) [Bupivacaine, bupivacaine]
duration of anesthesia/analgesia (rats [1]): at least 4 days | analgesia, paw withdrawal threshold (difference score) ([2]; dose doubled (4 rods/rat)): possible to achieve the analgesic effect | analgesia, paw withdrawal threshold (difference score) ([2]; first part, single dose (2 rods/rat)): insufficient to provide analgesia | % MPE, tail flick test, Average (rats [3]; 2h): 40.52 % MPE | % MPE, tail flick test (rats [3]; 2h after intrathecal implantation of PLGA rod, individual rats): 31.19 % MPE and 41.43 % MPE and 63.08 % MPE and 30.89 % MPE and 23.85 % MPE and 52.69 % MPE | % MPE, tail flick test, Average (rats [3]; 4h): 39.06 % MPE | % MPE, tail flick test (rats [3]; 4h, individual rats): 24.2268 % MPE and 38.87 % MPE and 40.26 % MPE and 44.7644 % MPE and 11.79 % MPE and 74.46 % MPE | Area under the curve (AUC), tail flick test (rats [3]; % MPE versus time in days, trapezoidal method, individual rats, listed as BP): 130.77 and 82.59 and 112.23 and 137.33 and 90.32 and 72.88 | Area under the curve (AUC), tail flick test, Mean (rats [3]; % MPE versus time in days, trapezoidal method, mean of 6 rats): 104.35 * # | % MPE, tail flick test, Average (rats [3]; D1): 23.1672 % MPE | % MPE, tail flick test (rats [3]; D1, individual rats): 14.95 % MPE and 27.11 % MPE and 31.79 % MPE and 25.65 % MPE and 11.54 % MPE and 27.96 % MPE | % MPE, tail flick test, Average (rats [3]; D2): 22.55 % MPE | % MPE, tail flick test (rats [3]; D2, individual rats): 13.4 % MPE and 32.23 % MPE and 40.51 % MPE and 16.49 % MPE and 13.33 % MPE and 19.35 % MPE | % MPE, tail flick test, Average (rats [3]; D3): 19.97 % MPE | % MPE, tail flick test (rats [3]; D3, individual rats): 14.95 % MPE and 22.51 % MPE and 26.92 % MPE and 13.87 % MPE and 18.46 % MPE and 23.12 % MPE | % MPE, tail flick test, Average (rats [3]; D4): 10.7 % MPE | % MPE, tail flick test (rats [3]; D4, individual rats): 14.43 % MPE and 14.0665 % MPE and 7.949 % MPE and 5.236 % MPE and 12.5641 % MPE and 9.946 % MPE | % MPE, tail flick test, Average (rats [3]; D5): 8.394 % MPE | % MPE, tail flick test (rats [3]; D5, individual rats): 9.536 % MPE and 4.092 % MPE and 7.692 % MPE and 5.236 % MPE and 7.949 % MPE and 15.86 % MPE | % MPE, tail flick test, Average (rats [3]; D6): 5.511 % MPE | % MPE, tail flick test (rats [3]; D6, individual rats): 8.247 % MPE and 0.7673 % MPE and 7.949 % MPE and 8.115 % MPE and 7.179 % MPE and 0.8065 % MPE | release from rods retrieved after termination of in vivo test [4]: suppressed release | in vitro release behavior [5]: zero order release pattern with two different rates | relative rate of drug release [6]: released faster than the other two drugs | release order [6]: almost zero order | % MPE, paw withdrawal test, Average (rats [7]; 2h, L): 26.10 % MPE | % MPE, paw withdrawal test, Average (rats [7]; 2h, R): 27.87 % MPE | % MPE, paw withdrawal test (rats [7]; 2h, left (L) hind paw, individual rats): 24.92 % MPE and 36.09 % MPE and 19.26 % MPE and 23.67 % MPE and 15.95 % MPE and 36.73 % MPE | % MPE, paw withdrawal test (rats [7]; 2h, right (R) hind paw, individual rats): 19.06 % MPE and 39.35 % MPE and 20.77 % MPE and 27 % MPE and 22.43 % MPE and 38.63 % MPE | % MPE, paw withdrawal test, Average (rats [7]; 4h, L): 26.48 % MPE | % MPE, paw withdrawal test (rats [7]; 4h, L, individual rats): 27.69 % MPE and 55.64 % MPE and 11.48 % MPE and 14.67 % MPE and 37.74 % MPE and 11.64 % MPE | % MPE, paw withdrawal test, Average (rats [7]; 4h, R): 29.68 % MPE | % MPE, paw withdrawal test (rats [7]; 4h, R, individual rats): 38.12 % MPE and 58.84 % MPE and 13.08 % MPE and 12 % MPE and 44.11 % MPE and 11.91 % MPE | % MPE, paw withdrawal test, Average (rats [7]; D1, L): 23.61 % MPE | % MPE, paw withdrawal test (rats [7]; D1, L, individual rats): 33.85 % MPE and 35.71 % MPE and 11.11 % MPE and 39 % MPE and 13.62 % MPE and 8.36 % MPE | % MPE, paw withdrawal test, Average (rats [7]; D1, R): 22.68 % MPE | % MPE, paw withdrawal test (rats [7]; D1, R, individual rats): 30.62 % MPE and 43.32 % MPE and 11.54 % MPE and 32 % MPE and 11.03 % MPE and 7.58 % MPE | % MPE, paw withdrawal test, Average (rats [7]; D2, L): 26.91 % MPE | % MPE, paw withdrawal test (rats [7]; D2, L, individual rats): 28.92 % MPE and 42.86 % MPE and 18.15 % MPE and 29 % MPE and 33.07 % MPE and 9.45 % MPE | % MPE, paw withdrawal test, Average (rats [7]; D2, R): 27.13 % MPE | % MPE, paw withdrawal test (rats [7]; D2, R, individual rats): 28.12 % MPE and 44.76 % MPE and 15.77 % MPE and 28.33 % MPE and 34.60 % MPE and 11.19 % MPE | % MPE, paw withdrawal test, Average (rats [7]; D3, L): 15.06 % MPE | % MPE, paw withdrawal test (rats [7]; D3, L, individual rats): 20.37 % MPE and 7.33 % MPE and 9.73 % MPE and 5.09 % MPE and 16.62 % MPE and 31.20 % MPE | % MPE, paw withdrawal test, Average (rats [7]; D3, R): 15.70 % MPE | % MPE, paw withdrawal test (rats [7]; D3, R, individual rats): 17.31 % MPE and 4.67 % MPE and 12.55 % MPE and 0.36 % MPE and 24.69 % MPE and 34.66 % MPE | % MPE, paw withdrawal test, Average (rats [7]; D4, L): 9.72 % MPE | % MPE, paw withdrawal test (rats [7]; D4, L, individual rats): 7.78 % MPE and 13.67 % MPE and 1.55 % MPE and 0 % MPE and 25.54 % MPE and 9.77 % MPE | % MPE, paw withdrawal test, Average (rats [7]; D4, R): 9.56 % MPE | % MPE, paw withdrawal test (rats [7]; D4, R, individual rats): 8.46 % MPE and 15.67 % MPE and 0.76 % MPE and 1.08 % MPE and 20.94 % MPE and 10.47 % MPE | % MPE, paw withdrawal test, Average (rats [7]; D5, L): 6.49 % MPE | % MPE, paw withdrawal test (rats [7]; D5, L, individual rats): 0.74 % MPE and 1 % MPE and 1.94 % MPE and 1.45 % MPE and 18.77 % MPE and 15.04 % MPE | % MPE, paw withdrawal test, Average (rats [7]; D5, R): 6.55 % MPE | % MPE, paw withdrawal test (rats [7]; D5, R, individual rats): 0.38 % MPE and 3 % MPE and 2.66 % MPE and 1.44 % MPE and 18.44 % MPE and 13.36 % MPE | % MPE, paw withdrawal test, Average (rats [7]; D6, L): 4.88 % MPE | % MPE, paw withdrawal test (rats [7]; D6, L, individual rats): 0.37 % MPE and 7 % MPE and 0.39 % MPE and −1.82 % MPE and 10.15 % MPE and 13.16 % MPE | % MPE, paw withdrawal test, Average (rats [7]; D6, R): 7.35 % MPE | % MPE, paw withdrawal test (rats [7]; D6, R, individual rats): 0.77 % MPE and 11 % MPE and 4.94 % MPE and 2.89 % MPE and 9.69 % MPE and 14.80 % MPE | Area under the curve (AUC), paw withdrawal test (left side) (rats [7]; [8]): 165.34 and 63.50 and 98.08 and 77.02 and 29.59 and 139.80 | Area under the curve (AUC), paw withdrawal test (right side) (rats [7]; [8]): 179.14 and 59.77 and 93.21 and 84.38 and 29.51 and 143.50 | Area under the curve (AUC), paw withdrawal test (left side), Mean (rats [7]; [9]): 95.55 * # | Area under the curve (AUC), paw withdrawal test (right side), Mean (rats [7]; [9]): 98.25 * #
